Assay results taken from patent US12371454B2, “Cyclic peptide compound having Kras inhibitory action” (priority 2019, dated 2025).
Starred links: 1 amine or outer side, 2 acyl side, 3 side chain; linkers in the order of their positions; H or OH if unused. Positions of bridges follow the written chain, without caps; N, C: chain ends. Non-standard residues stand in square brackets, D forms with d. Residues, ends and D or L forms follow the SMILES beside them. *: point of attachment. hPhe(3-Cl-4-CF3) = N[C@@H](CCc1ccc(C(F)(F)F)c(Cl)c1)C(=O)O; hPhe(3-F,4-CF3) = N[C@@H](CCc1ccc(C(F)(F)F)c(F)c1)C(=O)O; hPhe(4-CF3) = N[C@@H](CCc1ccc(C(F)(F)F)cc1)C(=O)O; NMePhe(4-Cl) = CN[C@@H](Cc1ccc(Cl)cc1)C(=O)O; NMePhe(4-Me) = CN[C@@H](Cc1ccc(C)cc1)C(=O)O; NMedβ3hAla = C[C@H](CC(=O)[*:2])N(C)[*:1]; Phe(3-I) = N[C@@H](Cc1cccc(I)c1)C(=O)O; Pro(4,4-F2) = O=C(O)[C@@H]1CC(F)(F)CN1; NMehPhe = CN[C@@H](CCc1ccccc1)C(=O)O; NMeCha = CN[C@@H](CC1CCCCC1)C(=O)O; NMeGly(cPr) = CN[C@H](C(=O)O)C1CC1; NMeF = CN[C@@H](Cc1ccccc1)C(=O)O; NMeI = CC[C@H](C)[C@H](NC)C(=O)O; NMeβAla = CN(CCC(=O)[*:2])[*:1]; NMeD = CN[C@@H](CC(=O)O)C(=O)O; CH2CONHtBu = CC(C)(C)NC(=O)C*; NMeL = CN[C@@H](CC(C)C)C(=O)O; NMeV = CN[C@H](C(=O)O)C(C)C; d(β3hA) = C[C@@H](N)CC(=O)O; NMeS = CN[C@@H](CO)C(=O)O; NMeA = CN[C@@H](C)C(=O)O; NMeAib = CNC(C)(C)C(=O)O; Nle = CCCC[C@H](N)C(=O)O; Piperidide = C1CCN(*)CC1; Pyrrolidide = C1CCN(*)C1; Ac5c = NC1(C(=O)O)CCCC1; Aze = O=C(O)[C@@H]1CCN1; Ac4c = NC1(C(=O)O)CCC1; Sar = CNCC(=O)O

The compounds below were run against T1, Kras and SOS1 (biotin-tagged human Kras loaded with GDP, His-tagged human SOS1) (Homo sapiens, UniProt P01116, G12D) (assay: Protein-protein interaction inhibition between Kras and SOS1 (KrasGl2D-SOS PPI) using AlphaScreen). Conditions: AlphaScreen; biotin-tagged human Kras loaded with GDP, His-tagged human SOS1; read-out: KRAS G12D-SOS PPI IC50.
T1 construct: made in house; host or cells: E. coli (stated for Kras only)
T1 sequence (P01116 1-188 isoform P01116-2 G12D): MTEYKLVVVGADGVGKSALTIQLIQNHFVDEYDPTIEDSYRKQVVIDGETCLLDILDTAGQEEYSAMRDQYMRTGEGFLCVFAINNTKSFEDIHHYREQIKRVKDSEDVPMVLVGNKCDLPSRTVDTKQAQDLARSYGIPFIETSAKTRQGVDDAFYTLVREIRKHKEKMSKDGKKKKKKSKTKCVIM
Type: binding
Summary of the method: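 AlphaScreen format: Ni donor beads capture His-SOS1, streptavidin acceptor beads capture biotinylated Kras (E. coli-expressed, GDP-loaded post-purification). Excite 680 nm, read 520-620 nm.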

| SMILES | IC50 |
| --- | --- |
| CC[C@H](C)[C@@H]1NC(=O)[C@H](C)N(C)C(=O)C[C@@H](C)NC(=O)[C@H](CC(C)C)N(C)C(=O)[C@H](Cc2ccccc2)N(C)C(=O)[C@@H]2CC(F)(F)CN2C(=O)[C@H](CCc2ccc(C(F)(F)F)cc2)NC(=O)CN(C)C(=O)[C@H](Cc2ccc(Cl)cc2)N(C)C(=O)CN(C)C(=O)CN(C)C1=O [Compound 870] (cyclo(I[Sar][Sar][NMePhe(4-Cl)][Sar][hPhe(4-CF3)][Pro(4,4-F2)][NMeF][NMeL][d(β3hA)][NMeA])) | 15 nM |
| CC[C@H](C)[C@@H]1NC(=O)[C@H](CC(C)C)N(C)C(=O)C[C@@H](C)N(C)C(=O)[C@H](C2CC2)N(C)C(=O)C2(CCCC2)NC(=O)[C@@H]2CCCN2C(=O)[C@H](CCc2ccc(C(F)(F)F)c(Cl)c2)NC(=O)CN(C)C(=O)[C@H](CC2CCCCC2)N(C)C(=O)CN(C)C(=O)CN(C)C1=O [Compound 874] (cyclo([Ac5c][NMeGly(cPr)][NMedβ3hAla][NMeL]I[Sar][Sar][NMeCha][Sar][hPhe(3-Cl-4-CF3)]P)) | 25 nM |
| CCCC[C@@H]1NC(=O)[C@H](Cc2cccc(I)c2)NC(=O)CN(C)C(=O)[C@H](Cc2ccc(Cl)cc2)N(C)C(=O)CN(C)C(=O)CN(C)C(=O)[C@H]([C@@H](C)CC)NC(=O)[C@H](CC(C)C)N(C)C(=O)C[C@@H](C(=O)N2CCCCC2)N(C)C(=O)[C@H](CC(C)C)NC(=O)[C@H](Cc2ccc(C)cc2)N(C)C1=O [Compound 876] ([NMeL]I[Sar][Sar][NMePhe(4-Cl)][Sar][Phe(3-I)][Nle][NMePhe(4-Me)]L[NMeD]-Piperidide; lactam N-11) | 18 nM |
| CC[C@H](C)[C@@H]1NC(=O)[C@H](C)N(C)C(=O)C[C@@H](C(=O)N2CCCC2)NC(=O)[C@H](CC(C)C)N(C)C(=O)[C@H](CCc2ccccc2)N(C)C(=O)[C@H](CC(C)C)NC(=O)[C@H](CCc2ccc(C(F)(F)F)cc2)NC(=O)CN(C)C(=O)[C@H](Cc2ccc(Cl)cc2)N(C)C(=O)CN(C)C(=O)CN(C)C1=O [Compound 878] ([NMeA]I[Sar][Sar][NMePhe(4-Cl)][Sar][hPhe(4-CF3)]L[NMehPhe][NMeL]D-Pyrrolidide; lactam N-11) | 320 nM |
| CC[C@H](C)[C@@H]1NC(=O)[C@H](CC(C)C)N(C)C(=O)CCN(C)C(=O)[C@H](C(C)C)N(C)C(=O)C2(CCCC2)NC(=O)[C@@H]2CCCN2C(=O)[C@H](CCc2ccc(C(F)(F)F)c(F)c2)NC(=O)CN(C)C(=O)[C@H](CC2CCCCC2)N(C)C(=O)CN(C)C(=O)CN(C)C1=O [Compound 879] (cyclo([Ac5c][NMeV][NMeβAla][NMeL]I[Sar][Sar][NMeCha][Sar][hPhe(3-F,4-CF3)]P)) | 36 nM |
| CC[C@H](C)[C@@H]1NC(=O)[C@H](C)N(C)C(=O)C[C@@H](C(=O)N2CCCC2)NC(=O)[C@H](CC(C)C)N(C)C(=O)[C@H](Cc2ccccc2)N(C)C(=O)[C@H](CC(C)C)NC(=O)[C@H](Cc2cccc(I)c2)NC(=O)CN(C)C(=O)[C@H](Cc2ccc(Cl)cc2)N(C)C(=O)CN(C)C(=O)CN(C)C1=O [Compound 884] ([NMeA]I[Sar][Sar][NMePhe(4-Cl)][Sar][Phe(3-I)]L[NMeF][NMeL]D-Pyrrolidide; lactam N-11) | 63 nM |
| CC[C@H](C)[C@@H]1NC(=O)[C@H](CC(C)C)N(C)C(=O)C[C@@H](C)N(C)C(=O)[C@H](CC(C)C)NC(=O)C(C)(C)N(C)C(=O)[C@H](CC(C)C)NC(=O)[C@H](CCc2ccc(C(F)(F)F)c(Cl)c2)NC(=O)CN(C)C(=O)[C@H](CC2CCCCC2)N(C)C(=O)[C@@H]2CCN2C(=O)[C@H](C)N(C)C1=O [Compound 886] (cyclo([Aze][NMeCha][Sar][hPhe(3-Cl-4-CF3)]L[NMeAib]L[NMedβ3hAla][NMeL]I[NMeA])) | 100 nM |
| CC[C@H](C)[C@@H]1NC(=O)[C@H](C)N(C)C(=O)C[C@@H](C(=O)N2CCCC2)NC(=O)[C@H](CC(C)C)N(C)C(=O)[C@H](COCC(=O)NC(C)(C)C)N(C)C(=O)[C@H](CC(C)C)NC(=O)[C@H](CCc2ccc(C(F)(F)F)cc2)NC(=O)CN(C)C(=O)[C@H](Cc2ccc(Cl)cc2)N(C)C(=O)CN(C)C(=O)CN(C)C1=O [Compound 889] ([NMeA]I[Sar][Sar][NMePhe(4-Cl)][Sar][hPhe(4-CF3)]L[NMeS](CH2CONHtBu)[NMeL]D-Pyrrolidide; lactam N-11) | 70 nM |
| CC[C@H](C)[C@@H]1NC(=O)[C@H](CC(C)C)N(C)C(=O)C[C@@H](C)N(C)C(=O)[C@H]([C@@H](C)CC)N(C)C(=O)C2(CCC2)NC(=O)[C@@H]2CC(F)(F)CN2C(=O)[C@H](CCc2ccc(C(F)(F)F)c(Cl)c2)NC(=O)CN(C)C(=O)[C@H](CC2CCCCC2)N(C)C(=O)CN(C)C(=O)CN(C)C1=O [Compound 891] (cyclo([Ac4c][NMeI][NMedβ3hAla][NMeL]I[Sar][Sar][NMeCha][Sar][hPhe(3-Cl-4-CF3)][Pro(4,4-F2)])) | 9.6 nM |
